We go through two compounds from patent US9844526B2 (priority 2015, dated 2017).

One series relates to vascular function. Conditions: cited from earlier work.
Series [1] relates to platelets. Particulars: 4 mg/kg/day; cited from earlier work.
For a further series, the system named is cyclooxygenase. Particulars: in vitro; cited from earlier work.
Series [2] concerns platelets. Kind of series: Platelet function by whole blood/optical lumi-aggregometer after capsule intake. The class given is in vivo, human. How it is done:
Participants were randomized by block design to consumed trans-res or […] random order. Randomization was performed by the study coordinator following a predetermined plan formulated via a web-based random number generator. […] The study included two separate investigations: a one hour study and a two hour study (FIG. 6). During each study visit, which took place after an overnight fast, a baseline measurement of PAT and a blood sample were collected, followed by consumption of the assigned treatment. During the one hour study, PAT measurements and blood samples were collected thirty and sixty minutes after the capsules were consumed. During the two hour study, a PAT measurement and blood sample were taken two hours after the capsules were consumed. Platelet reactivity during clinical screening was assessed by a PFA-100 (Siemens, Deerfield, Ill.), which measures platelet function by simulating arterial hemostasis under blood flow shear stress. During the intervention, platelet function was assessed by a whole blood/optical lumi-aggregometer (Chrono-log Model 700, Havertown, Pa.). Briefly, platelet aggregation was measured via electrical impedence (or electrical resistance), whereas lumi-aggregometry was used to examine aggregation together with adenosine triphosphate (hereafter, “ATP”) release, which is determined with firefly luciferin-luciferase system. […] One of the following agonists was used to stimulate platelets: collagen ([…]), AA (10 μL) or ADP ([…]). ATP release was measured only when platelets were activated with ADP. The aggregation was measured over a period of six minutes, following the addition of an agonist.

The test system of a further series is eNOS. Particulars: 1 μM; human umbilical vein endothelial cells; cited from earlier work.
In series [3] the test system is Healthy postmenopausal women. Description: Microvascular function by peripheral arterial tonometry (Endo-PAT2000), randomized double-blind crossover trial. The class given is in vivo, human. Particulars: combined data.
The test system of series [4] is platelets. Particulars: 10 mg daily for three months; cited from earlier work.
For series [5], the system named is platelets. Conditions: in vitro, 10-1,000 μM, dose dependent; cited from earlier work.
Series [6] can be described thus: Plasma resveratrol concentrations after capsule intake (HPLC). The class given is in vivo, human. Particulars: one hour study, median (interquartile range), baseline 0.00 (0.00, 0.00). As to the method: The study included two separate investigations: a one hour study and a two hour study (FIG. 1). […] The two hour study was designed to fully assess and compare the responses to trans-res and ResArgin™.
Participants were randomized by block design to consumed trans-res or ResArgin™ in random order. Randomization was performed by the study coordinator following a predetermined plan formulated via a web-based random number generator. […] The study included two separate investigations: a one hour study and a two hour study (FIG. 6). During each study visit, which took place after an overnight fast, a baseline measurement of PAT and a blood sample were collected, followed by consumption of the assigned treatment. During the one hour study, PAT measurements and blood samples were collected thirty and sixty minutes after the capsules were consumed. During the two hour study, a PAT measurement and blood sample were taken two hours after the capsules were consumed.
Briefly, plasma was treated with acidified methanol [0.5% (v/v) of acetic acid in methanol; precooled to −20° C.] containing an appropriate recovery standard. The mixture was stored at −80 C for 12 hours to allow for cryo-assisted protein precipitation, and then centrifuged for 15 min at 16,500×g. […]

The mark [7] stands for this setting: 10 mg per day for three months, stable coronary artery disease patients.
Where [8] appears, read: platelets stimulated with 1 μL collagen, one hour post consumption of 90 mg.
Setting [9] is: platelets stimulated with 10 μL arachidonic acid, one hour after intake of 90 mg.

Entries after “also recorded” stand apart in the source; their conditions may differ. Like-named read-outs stand apart in the source and are kept apart here.

As to `Oc1ccc(C=Cc2cc(O)cc(O)c2)cc1` [Resveratrol, 3,5, 4′-trihydroxystilbene], the FMD response entry with vascular function (setting [7]) and in the series with vascular function (75 mg daily for six weeks) was “enhanced” each time. The ADP-induced platelet aggregation result in the series on platelets [1] is recorded as “inhibited”.
On to `Oc1ccc(/C=C/c2cc(O)cc(O)c2)cc1` [trans-res, Trans-resveratrol], for which the “Cyclooxygenase (COX) activity” value with cyclooxygenase is “inhibit”. For the same compound, the “Slope, change from baseline” value in the series with platelets [2] (lumi-aggregometry with 10 μL ADP, one hour post consumption of 90 mg) is given as “significant decrease”; with platelets [2] (setting [8]), “not”. For the same compound, in the series with platelets [2] (setting [8]), the “Lag time, change from baseline” value was “significant increase”. For the same compound, the “Area under the curve (AUC) of aggregation, change from baseline” value with platelets [2] (setting [9]) is “no changes”. Also, the “Maximum aggregation, change from baseline” value with platelets [2] (setting [9]) is given as “no changes”. Moreover, in the series on platelets [2] (stimulation with 5 μL collagen, one hour post consumption of 90 mg), the “Platelet function, change from baseline” value is given as “no significant changes”. For the same compound, the “Expression of eNOS” value in the series on eNOS is recorded as “up-regulated”. The “AI@75 (AI normalized to a heart rate of 75 beats per minute), change” value in series [3] (90 mg) is “No significant changes”. Besides, the RHI result in series [3] (1 hour after intake, ResArgin baseline 2.119±0.085) is on record as “not observed”. The “FRHI, change from baseline” value in series [3] (one and two hours after intake) was “No differences were observed; also recorded: no changes”. Besides, the FMD response entry was “significant improvement” in the series with vascular function (setting [7]); “significant increase” in the series with vascular function (75 mg daily for six weeks); “significant increase” in the series on vascular function (75 mg, one hour post-consumption); “increase” with vascular function (single dose of 30, 90 and 270 mg, one hour after consumption). In addition, the Platelet aggregation result with platelets [4] and in the series with platelets [5] was “significantly reduced” throughout. Also, the Plasma resveratrol concentration is 2.04 (0.82, 2.54) in series [6] (30 minutes after intake of 90 mg) and 2.65 (1.69, 3.44) in [6] (60 minutes after intake of 90 mg).
